Experimental data from PMC11125359 (Pharmaceuticals, 2024).
Where two headings read alike, the source gives them in different places.

Key:
[1] = tested on: α-amylase; experiment: α-Amylase inhibition (anti-diabetic); assay type: biochemical; conditions: equal concentrations (1000 µg/mL); mean ± SE
[2] = tested on: α-glucosidase; experiment: α-Glucosidase inhibition (anti-diabetic); assay type: biochemical; conditions: equal concentrations (1000 µg/mL); mean ± SE
[3] = biological target: acetylcholinesterase (AChE) (Homo sapiens, UniProt P22303); experiment: biochemical; conditions: same concentration (1000 µg/mL); mean ± SE
Sequence of acetylcholinesterase (AChE) (P22303 32-614, species assumed): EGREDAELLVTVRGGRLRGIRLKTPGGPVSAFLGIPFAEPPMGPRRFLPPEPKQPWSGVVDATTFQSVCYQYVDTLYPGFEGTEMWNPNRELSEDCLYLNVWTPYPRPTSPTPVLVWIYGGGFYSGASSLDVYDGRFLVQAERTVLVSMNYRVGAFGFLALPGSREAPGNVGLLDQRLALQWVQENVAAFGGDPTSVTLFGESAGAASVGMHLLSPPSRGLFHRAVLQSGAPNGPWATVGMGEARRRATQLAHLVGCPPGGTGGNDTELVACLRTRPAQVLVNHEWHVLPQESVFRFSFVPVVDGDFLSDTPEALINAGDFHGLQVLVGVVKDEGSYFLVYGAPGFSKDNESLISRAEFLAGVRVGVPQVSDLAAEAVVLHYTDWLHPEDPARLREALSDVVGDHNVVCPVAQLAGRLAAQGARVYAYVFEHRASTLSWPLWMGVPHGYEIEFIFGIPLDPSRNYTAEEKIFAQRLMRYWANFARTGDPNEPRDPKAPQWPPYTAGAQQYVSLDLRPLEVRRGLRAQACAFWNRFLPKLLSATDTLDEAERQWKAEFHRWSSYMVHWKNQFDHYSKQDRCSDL

[4] = biological target: bovine serum albumin (BSA) (Bos taurus, UniProt P02769); conditions: equal concentrations (1000 µg/mL); mean ± SE
Sequence of bovine serum albumin (BSA) (P02769 25-607): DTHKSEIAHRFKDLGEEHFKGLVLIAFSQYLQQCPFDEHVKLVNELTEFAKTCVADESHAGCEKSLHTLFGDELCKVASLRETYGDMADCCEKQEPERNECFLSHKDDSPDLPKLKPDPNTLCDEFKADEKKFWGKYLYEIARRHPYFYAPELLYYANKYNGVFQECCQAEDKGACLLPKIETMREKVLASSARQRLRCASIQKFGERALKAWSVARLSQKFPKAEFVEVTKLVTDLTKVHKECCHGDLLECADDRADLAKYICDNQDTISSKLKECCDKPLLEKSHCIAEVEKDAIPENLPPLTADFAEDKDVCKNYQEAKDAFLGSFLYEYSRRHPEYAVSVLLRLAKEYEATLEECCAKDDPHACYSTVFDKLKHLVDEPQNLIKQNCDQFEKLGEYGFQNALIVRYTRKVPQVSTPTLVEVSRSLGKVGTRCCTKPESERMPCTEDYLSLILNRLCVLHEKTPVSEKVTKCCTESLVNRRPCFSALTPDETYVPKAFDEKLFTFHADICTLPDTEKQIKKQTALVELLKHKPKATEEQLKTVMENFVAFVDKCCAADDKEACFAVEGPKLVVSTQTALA

[5] = tested on: proteinase enzyme (trypsin); experiment: Proteinase enzyme inhibition (anti-inflammatory); assay type: biochemical; conditions: equal concentrations (1000 µg/mL); mean ± SE
[6] = tested on: human colon cancer (Caco-2) cell line; experiment: cells; assay type: cell-based; conditions: for Viability %, Caco-2, 1st concentration: Conc.: 5a 13.45, 5d 12.64, 5e 12.29, 5f 11.81, 7a 12.72, 7f 11.24, DOX 11.50; for Viability %, Caco-2, 2nd concentration: Conc.: 5a 26.91, 5d 25.27, 5e 24.58, 5f 23.63, 7a 25.43, 7f 22.48, DOX 23.00; for Viability %, Caco-2, 3rd concentration: Conc.: 5a 53.81, 5d 50.55, 5e 49.15, 5f 47.26, 7a 50.86, 7f 44.96, DOX 46.00; for Viability %, Caco-2, 4th concentration: Conc.: 5a 107.63, 5d 101.09, 5e 98.31, 5f 94.51, 7a 101.72, 7f 89.93, DOX 91.99; for Viability %, Caco-2, 5th concentration: Conc.: 5a 215.26, 5d 202.19, 5e 196.61, 5f 189.03, 7a 203.44, 7f 179.85, DOX 183.99; for IC50: Homo sapiens, Caco-2, 48 h, MTT, mean ± SE, read-out: Cytotoxic activity IC50, Colon (Caco-2); for Therapeutic Index (TI), Colon (Caco-2): IC50 on normal cells (WI-38)/IC50 on Caco-2
[7] = Cytotoxic activity, MTT assay, normal lung (WI-38); assay type: cell-based; conditions: human, WI-38 normal lung cells; for IC50 at 48 h: MTT, mean ± SE, read-out: Cytotoxic activity IC50, Normal Lung (WI-38)
[8] = tested on: caspase-3; experiment: Caspase-3 ELISA in treated A549 cells; assay type: cell-based, human; conditions: DMSO control 85.92 ± 0.12
[9] = tested on: Bcl-2; experiment: Bcl-2 ELISA in treated A549 cells; assay type: cell-based, human; conditions: DMSO control 9.83 ± 0.05
[10] = tested on: caspase-3; experiment: Caspase-3 ELISA in treated Caco-2 cells; assay type: cell-based, human; conditions: DMSO control 97.06 ± 0.14
[11] = tested on: Bcl-2; experiment: Bcl-2 ELISA in treated Caco-2 cells; assay type: cell-based, human; conditions: DMSO control 7.99 ± 0.08
[12] = Iron-reducing power (IRP); conditions: equal concentrations (1000 µg/mL); mean ± SE, three replicates
Protocol: (§1) All in vitro biological activities were assessed in the tested compounds at equal concentrations (1000 µg/mL). All assays were carried out in triplicate.
In vitro biological activities
(§2) The total antioxidant capacity (TAC) was determined by analyzing the green phosphate/Mo5+ complex at a wavelength (λ) of 695 nm, following the procedure described by Prieto
(§3) et al. Samples (at each concentration) were mixed with a reagent solution containing 0.3 N sulfuric
(§4) acid, 28 mM sodium phosphate, and 4 mM ammonium molybdate. Methanol (80%) was used in place
(§5) of the sample for the blank. The tubes were sealed and incubated in a boiling water bath for 90
(§6) minutes. After cooling to room temperature, the absorbance was measured at 695 nm against the
(§7) blank. Ascorbic acid was used at the same concentrations as a standard. The antioxidant capacity was
(§8) expressed as mg gallic acid equivalent per gram weight.
(§9) The iron reducing power was determined as µg/mL using the method proposed by Oyaizu
(§10) In brief, 1ml of the tested sample (at each concentration) was combined with 1mL of 200mM
(§11) sodium phosphate buffer (pH 6.6) and 1mL of 1% potassium ferricyanide. The mixture was then
(§12) incubated at 50°C for 20 minutes, followed by the addition of 1mL of trichloroacetic acid (10%). After
(§13) centrifugation at 2000rpm for 10 minutes, the upper layer solution (2.5 mL) was mixed with 2.5 mL of double deionized water and 1mL of fresh ferric chloride (0.1%). The absorbance was measured at
(§14) 700nm against a blank prepared without the sample. Ascorbic acid was used at the same
(§15) concentrations as a standard. A high absorbance at 700nm indicates a higher reducing power in the
(§16) The 1,1-Diphenyl-2-picryl-hydrazyl (DPPH) radical scavenging activities were evaluated using the method described by Rahman et al. An antioxidant substance capable of donating a
(§17) hydrogen atom to a solution containing DPPH- can reduce the stable free radical, causing the solution
(§18) to change color from violet to pale yellow. The remaining DPPH- radical was quantified by
(§19) nm using a spectroscopic method. Two milliliters of a DPPH solution (100 µM) in ethanol were mixed
(§20) with 2 mL of the sample (at each concentration). The reaction mixture for each concentration was
(§21) thoroughly vortexed and then incubated in the dark at room temperature for 30 minutes. The
(§22) absorbance was then measured spectrophotometrically at 518 nm against a blank (ethanol). For the
(§23) control, 2 mL of ethanol was added instead of the sample and run simultaneously with the test.
(§24) Ascorbic acid was used at the same concentrations as a positive control. Percent inhibition of the
(§25) DPPH free radical was calculated. The median inhibitory concentration (IC 50) for each tested
(§26) The procedure for the 2,2'-azinobis-(3-ethylbenzothiazoline-6-sulfonic acid) (ABTS) assay
(§27) potassium persulfate solution (2.4 mM). The working solution was prepared by mixing the two stock
(§28) solutions in equal quantities and allowing them to react at room temperature in a dark place for 14
(§29) hours. The solution was then diluted by mixing 1 mL of ABTS solution with 60 mL of methanol to
(§30) was prepared for each assay. The tested samples (at each concentration) were allowed to react with 1
(§31) mL of the ABTS solution, and the absorbance was taken at 734 nm after 7 minutes using a
(§32) spectrophotometer. The ABTS scavenging capacities of the samples were compared with that of
(§33) ascorbic acid (at the same concentrations).

[13] = ABTS radical scavenging assay; conditions: equal concentrations (1000 µg/mL); mean ± SE
Protocol: as §1
In vitro biological activities
as §2, §3, §4, §5, §6, §7, §8, §9, §10, §11, §12, §13, §14, §15, §16, §17, §18, §19, §20, §21, §22, §23, §24, §25, §26, §27, §28, §29, §30, §31, §32, §33

[14] = DPPH radical-scavenging activity; conditions: read-out: DPPH (IC50); mean ± SE, three replicates
Protocol: In vitro biological activities
as §16, §17, §18, §19, §20, §21, §22, §23, §24, §25

[15] = tested on: human lung cancer (A549) cell line; experiment: Cytotoxic activity, MTT assay, lung (A549); conditions: for Viability %, A549, 1st concentration: Conc.: 5a 13.45, 5d 12.64, 5e 12.29, 5f 11.81, 7a 12.72, 7f 11.24, DOX 11.50; for Viability %, A549, 2nd concentration: Conc.: 5a 26.91, 5d 25.27, 5e 24.58, 5f 23.63, 7a 25.43, 7f 22.48, DOX 23.00; for Viability %, A549, 3rd concentration: Conc.: 5a 53.81, 5d 50.55, 5e 49.15, 5f 47.26, 7a 50.86, 7f 44.96, DOX 46.00; for Viability %, A549, 4th concentration: Conc.: 5a 107.63, 5d 101.09, 5e 98.31, 5f 94.51, 7a 101.72, 7f 89.93, DOX 91.99; for Viability %, A549, 5th concentration: Conc.: 5a 215.26, 5d 202.19, 5e 196.61, 5f 189.03, 7a 203.44, 7f 179.85, DOX 183.99; for IC50: Homo sapiens, A549, 48 h, read-out: Cytotoxic activity IC50, Lung (A549)
Protocol: It will be assayed against human lung cancer (A549) and colon (Caco-2) cell line in
comparison with normal lung (WI-38) cell line using 3-(4,5-dimethythiazol-2-yl)-2,5-diphenyl
tetrazolium bromide (MTT) assay by determining the optical density (OD) at 570 nm according to the
The cells were dispensed in a 96-well sterile microplate (3
µL of each compound or doxorubicin (positive control, in DMSO) for 48 h in a serum free medium
prior to the MTT assay. Subsequently, the media were carefully removed, and 40 µL of MTT (2.5
mg/mL) was added to each well and then incubated for an additional 4 h. Purple formazan dye
crystals were solubilized by the addition of 200 µL of DMSO. The absorbance was measured at 570 nm using a SpectraMax Paradigm Multi-Mode microplate reader. The relative cell viability was
experiments were conducted in triplicate. Percent of the cell-growth inhibition (%) and the IC 50 was
calculated using IC 50 calculation software. The concentrations used for calculating the IC 50 depend on

[16] = Total antioxidant capacity (TAC), phosphomolybdenum method; conditions: equal concentrations (1000 µg/mL); mean ± SE, three replicates
Protocol: as §1
In vitro biological activities
as §2, §3, §4, §5, §6, §7, §8, §9, §10, §11, §12, §13, §14, §15, §16, §17, §18, §19, §20, §21, §22, §23, §24, §25, §26, §27, §28, §29, §30, §31, §32, §33

[17] = Conc. as printed: 5a 53.81, 5d 50.55, 5e 49.15, 5f 47.26, 7a 50.86, 7f 44.96, DOX 46.00, read-out: Viability %, WI-38, 3rd concentration
[18] = Conc. as printed: 5a 107.63, 5d 101.09, 5e 98.31, 5f 94.51, 7a 101.72, 7f 89.93, DOX 91.99, read-out: Viability %, WI-38, 4th concentration
[19] = Conc.: 5a 13.45, 5d 12.64, 5e 12.29, 5f 11.81, 7a 12.72, 7f 11.24, DOX 11.50, read-out: Viability %, WI-38, 1st concentration
[20] = Conc.: 5a 26.91, 5d 25.27, 5e 24.58, 5f 23.63, 7a 25.43, 7f 22.48, DOX 23.00, read-out: Viability %, WI-38, 2nd concentration
[21] = Conc.: 5a 215.26, 5d 202.19, 5e 196.61, 5f 189.03, 7a 203.44, 7f 179.85, DOX 183.99, read-out: Viability %, WI-38, 5th concentration

| SMILES | Inhibition (%) α-Amylase [1] [%] | Inhibition (%) α-Glucosidase [2] [%] | inhibition at 1000 µg/mL [3] [%] | Inhibition (%) Protein Denaturation [4] [%] | Inhibition (%) Proteinase [5] [%] | Viability %, Caco-2, 1st concentration [6] [%] | Viability %, Caco-2, 2nd concentration [6] [%] | Viability %, Caco-2, 3rd concentration [6] [%] | Viability %, Caco-2, 4th concentration [6] [%] | Viability %, Caco-2, 5th concentration [6] [%] | IC50 [6] [µM] | Therapeutic Index (TI), Colon (Caco-2) [6] | viability at 48 h [7, 17] [%] | viability at 48 h [7, 18] [%] | viability at 48 h [7, 19] [%] | viability at 48 h [7, 20] [%] | viability at 48 h [7, 21] [%] | IC50 at 48 h [7] [µM] | Caspase-3 level, Lung (A549) [8] [pg/mL] | Bcl-2 level, Lung (A549) [9] [ng/mL] | other results |
| --- | --- | --- | --- | --- | --- | --- | --- | --- | --- | --- | --- | --- | --- | --- | --- | --- | --- | --- | --- | --- | --- |
| O=C(Nc1ccccc1)c1c(Nc2ccccc2)n[nH]c1N=Cc1ccc(N2CCCCC2)cc1 [5a] | 31.24 ± 0.05 | 26.87 ± 0.05 | 42.05 ± 0.03 | 26.83 ± 0.03 | 23.33 ± 0.03 | 82.93 | 74.41 | 55.38 | 33.22 | 25.84 | 60.29 ± 0.14 | 7.32 | 69.5 | 54.2 | 81.4 | 75.5 | 38.3 | 442 ± 8.8 | 184.74 ± 0.26 | 6.55 ± 0.03 | Caspase-3 level, Colon (Caco-2) [10]: 208.68 ± 0.31 pg/mL; Bcl-2 level, Colon (Caco-2) [11]: 5.33 ± 0.05 ng/mL; Iron-Reducing Power (IRP) [12]: 34.27 ± 0.07 µg/mL; ABTS (%) inhibition [13]: 75.46 ± 0.05%; IC50 [14]: 26.43 ± 0.01 µM; Viability %, A549, 1st concentration [15]: 97.46%; Viability %, A549, 2nd concentration [15]: 87.31%; Viability %, A549, 3rd concentration [15]: 60.91%; Viability %, A549, 4th concentration [15]: 46.48%; Viability %, A549, 5th concentration [15]: 20.20%; IC50 [15]: 68.84 ± 0.14 µM; Total Antioxidant Capacity (TAC) [16]: 52.25 ± 0.19 mg Gallic Acid/g |
| COc1ccc(Nc2n[nH]c(/N=C/c3ccc(N4CCCCC4)cc3)c2C(=O)Nc2ccccc2)cc1 [5d] | 32.37 ± 0.05 | 27.84 ± 0.05 | 62 ± 0.04 | 27.79 ± 0.03 | 24.17 ± 0.03 | 70.71 | 51.15 | 40.54 | 26.77 | 23.43 | 62.33 ± 0.14 | 11.73 | 82.7 | 76.8 | 98.7 | 90.7 | 62.7 | 732 ± 10.5 | 300.73 ± 0.42 | 2.81 ± 0.01 | Inhibition (%) Acetylcholinesterase [3]: 62.11 ± 0.04%; Caspase-3 level, Colon (Caco-2) [10]: 242.65 ± 0.36 pg/mL; Bcl-2 level, Colon (Caco-2) [11]: 3.20 ± 0.03 ng/mL; Iron-Reducing Power (IRP) [12]: 35.51 ± 0.07 µg/mL; ABTS (%) inhibition [13]: 78.18 ± 0.05%; IC50 [14]: 23.98 ± 0.01 µM; Viability %, A549, 1st concentration [15]: 90.46%; Viability %, A549, 2nd concentration [15]: 79.41%; Viability %, A549, 3rd concentration [15]: 48.01%; Viability %, A549, 4th concentration [15]: 36.58%; Viability %, A549, 5th concentration [15]: 18.10%; IC50 [15]: 48.61 ± 0.14 µM; Total Antioxidant Capacity (TAC) [16]: 54.13 ± 0.20 mg Gallic Acid/g |
| COc1ccc(Nc2n[nH]c(/N=C/c3ccc(N4CCCCC4)cc3)c2C(=O)Nc2ccc(C)cc2)cc1 [5e] | 31.83 ± 0.05 | 27.37 ± 0.05 | 42.83 ± 0.03 | 27.33 ± 0.03 | 23.76 ± 0.03 | 70.21 | 50.65 | 40.04 | 26.27 | 11.43 | 40.99 ± 0.2 | 15.81 | 81 | 65.7 | 92.9 | 87 | 38.3 | 648 ± 7.57 | 214.81 ± 0.30 | 3.93 ± 0.02 | Caspase-3 level, Colon (Caco-2) [10]: 315.45 ± 0.46 pg/mL; Bcl-2 level, Colon (Caco-2) [11]: 2.46 ± 0.02 ng/mL; Iron-Reducing Power (IRP) [12]: 34.91 ± 0.07 µg/mL; ABTS (%) inhibition [13]: 76.87 ± 0.05%; IC50 [14]: 23.71 ± 0.01 µM; Viability %, A549, 1st concentration [15]: 90.96%; Viability %, A549, 2nd concentration [15]: 79.91%; Viability %, A549, 3rd concentration [15]: 48.51%; Viability %, A549, 4th concentration [15]: 37.08%; Viability %, A549, 5th concentration [15]: 18.60%; IC50 [15]: 47.74 ± 0.2 µM; Total Antioxidant Capacity (TAC) [16]: 53.23 ± 0.20 mg Gallic Acid/g |
| COc1ccc(Nc2n[nH]c(N=Cc3ccc(N4CCCCC4)cc3)c2C(=O)Nc2ccc(Cl)cc2)cc1 [5f] | 31.77 ± 0.05 | 27.33 ± 0.05 | 42.76 ± 0.03 | 27.28 ± 0.03 | 23.72 ± 0.03 | 89.43 | 80.91 | 61.88 | 39.72 | 32.34 | 61.98 ± 0.12 | 7.95 | 76 | 60.7 | 87.9 | 82 | 44.8 | 493 ± 9.88 | 236.29 ± 0.33 | 3.57 ± 0.02 | Caspase-3 level, Colon (Caco-2) [10]: 266.92 ± 0.39 pg/mL; Bcl-2 level, Colon (Caco-2) [11]: 2.91 ± 0.03 ng/mL; Iron-Reducing Power (IRP) [12]: 34.85 ± 0.07 µg/mL; ABTS (%) inhibition [13]: 76.74 ± 0.05%; IC50 [14]: 22.83 ± 0.01 µM; Viability %, A549, 1st concentration [15]: 97.46%; Viability %, A549, 2nd concentration [15]: 87.31%; Viability %, A549, 3rd concentration [15]: 60.91%; Viability %, A549, 4th concentration [15]: 46.48%; Viability %, A549, 5th concentration [15]: 20.20%; IC50 [15]: 60.45 ± 0.12 µM; Total Antioxidant Capacity (TAC) [16]: 53.14 ± 0.20 mg Gallic Acid/g |
| Cc1c(C=Nc2[nH]nc(Nc3ccccc3)c2C(=O)Nc2ccccc2)c(=O)n(-c2ccccc2)n1C [7a] | 31.30 ± 0.05 | 26.91 ± 0.05 | 42.12 ± 0.03 | 26.87 ± 0.03 | 23.37 ± 0.03 | 70.21 | 50.65 | 40.04 | 26.27 | 22.93 | 42.42 ± 0.18 | 17.35 | 82.7 | 76.8 | 98.7 | 90.7 | 62.7 | 736 ± 7.95 | 322.21 ± 0.45 | 2.62 ± 0.01 | Caspase-3 level, Colon (Caco-2) [10]: 363.98 ± 0.54 pg/mL; Bcl-2 level, Colon (Caco-2) [11]: 2.13 ± 0.02 ng/mL; Iron-Reducing Power (IRP) [12]: 34.33 ± 0.07 µg/mL; ABTS (%) inhibition [13]: 75.59 ± 0.05%; IC50 [14]: 24.94 ± 0.01 µM; Viability %, A549, 1st concentration [15]: 90.96%; Viability %, A549, 2nd concentration [15]: 79.91%; Viability %, A549, 3rd concentration [15]: 48.51%; Viability %, A549, 4th concentration [15]: 37.08%; Viability %, A549, 5th concentration [15]: 18.60%; IC50 [15]: 49.4 ± 0.18 µM; Total Antioxidant Capacity (TAC) [16]: 52.34 ± 0.19 mg Gallic Acid/g |
